Values quoted from earlier work in patent publication JP2021073187A, “即効型インスリン組成物” (Eli Lilly and Co, priority 2014, dated 2021).

In the case of “インスリンリスプロ: drug substance of HUMALOG, CAS 133107-64-9; A chain SEQ ID 1, B chain SEQ ID 3 [28B−L−リジン−29B−L−プロリン ヒトインスリン]”, the “Potency relative to human insulin” value (on a molar basis) is listed as “等しい効力” and the “Effect after subcutaneous injection relative to injected soluble human insulin” value (subcutaneous injection) is listed as “迅速で短い持続時間”.
